Results: patent publication US9828350B2, “5,6-dihydro-2H-[1,4]oxazin-3-yl-amine derivatives useful as inhibitors of beta-secretase (BACE)” (Janssen Pharmaceutica NV, priority 2010, dated 2017)

What was measured:
Abeta 1-42 = experiment: Cellular αLisa assay in SKNBE2 cells, Abeta 1-42; assay type: cell-based, human; settings: incubated for 18 hours; for IC50: Homo sapiens, SKNBE2, 18 h, read-out: Cellular αLisa assay in SKNBE2 cells Abeta 42 pIC50 (converted)
Outline: (§1)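 Human neuroblastoma SKNBE2 cells expressing wild-type hAPP695 were incubated with compound for 18 hours. Secreted Abeta total and Abeta 1-42 in medium were quantified by sandwich αLisa: biotinylated AbN/25 on streptavidin donor beads with Ab4G8 (total) or cAb42/26 (1-42) acceptor beads. Light emission read after 1 hour (ex 650 nm, em 615 nm).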

[1] = target: recombinant BACE1 protein (Homo sapiens, UniProt P56817); experiment: Biochemical FRET based assay; settings: recombinant BACE1 1 μg/ml, 120 minutes at room temperature, pH 5.0; for IC50: read-out: Biochemical FRET based assay pIC50 (converted)
recombinant BACE1 protein, sequence (P56817 46-501): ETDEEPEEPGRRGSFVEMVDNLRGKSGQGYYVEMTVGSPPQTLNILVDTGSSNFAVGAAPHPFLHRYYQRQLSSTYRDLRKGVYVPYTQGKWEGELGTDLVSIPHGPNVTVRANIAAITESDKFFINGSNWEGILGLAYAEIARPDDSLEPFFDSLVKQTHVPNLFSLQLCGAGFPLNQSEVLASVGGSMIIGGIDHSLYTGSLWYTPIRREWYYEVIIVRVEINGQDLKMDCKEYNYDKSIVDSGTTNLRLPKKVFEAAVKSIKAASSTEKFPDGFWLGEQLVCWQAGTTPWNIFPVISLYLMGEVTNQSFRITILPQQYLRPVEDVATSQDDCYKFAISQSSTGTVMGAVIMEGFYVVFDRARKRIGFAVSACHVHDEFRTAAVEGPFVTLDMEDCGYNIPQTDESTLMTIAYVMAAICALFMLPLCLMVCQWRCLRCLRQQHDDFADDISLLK
Outline: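 Recombinant BACE1 (1 μg/ml final) was incubated 120 minutes at room temperature with […] Mca/Dnp-labelled 13-mer APP Swedish-mutant peptide in 40 mM citrate pH 5.0, 0.04% PEG, 4% DMSO, with or without compound. Cleavage was measured as fluorescence (ex 320/em 405 nm), given as RFU difference between T120 and T0.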

Abeta total = experiment: Cellular αLisa assay in SKNBE2 cells, Abeta total; assay type: cell-based, human; settings: incubated for 18 hours; for IC50: Homo sapiens, SKNBE2, 18 h, read-out: Cellular αLisa assay in SKNBE2 cells Abetatotal pIC50 (converted)
Outline: as §1

IC50 (Abeta 1-42)	IC50 [1]	IC50 (Abeta total)	Cellular αLisa assay in SKNBE2 cells Abeta 42 pIC50 (Abeta 1-42)	Cellular αLisa assay in SKNBE2 cells Abetatotal pIC50 (Abeta total)	Biochemical FRET based assay pIC50 [1]	Structure (SMILES)
240 nM	263 nM	263 nM				C[C@]1(c2cccc(NC(=O)c3ncc(Cl)cc3Cl)c2)N=C(N)CO[C@@]1(F)C(F)(F)F [Compound 243]
6.61 nM	21.9 nM	5.89 nM				C[C@]1(c2cccc(NC(=O)c3ncc(C#N)cc3Cl)c2)N=C(N)CO[C@]1(F)C(F)(F)F [Compound 245]
120 nM	316 nM	102 nM				C[C@]1(c2cccc(NC(=O)c3ncc(C#N)cc3Cl)c2)N=C(N)CO[C@@]1(F)C(F)(F)F [Compound 246]
89.1 nM	219 nM	81.3 nM				NC1=N[C@@](c2cccc(NC(=O)c3ncc(Cl)cc3F)c2)(C2CC2)[C@H](F)OC1 [Compound 249, (2S,3R)—N-[3-(5-amino-3-cyclopropyl-2-fluoro-3,6-dihydro-2H-1,4-oxazin-3-yl)phenyl]-5-chloro-3-fluoropyridine-2-carboxamide]
43.7 nM	60.3 nM	39.8 nM				NC1=N[C@@](c2cccc(NC(=O)c3ncc(Cl)cc3F)c2)(C2CC2)[C@@H](F)OC1 [Compound 250, (2R,3R)—N-[3-(5-amino-3-cyclopropyl-2-fluoro-3,6-dihydro-2H-1,4-oxazin-3-yl)phenyl]-5-chloro-3-fluoropyridine-2-carboxamide]
41.7 nM	49 nM	38 nM				N#Cc1ccc(C(=O)Nc2cccc([C@@]3(C4CC4)N=C(N)CO[C@@H]3F)c2)nc1 [Compound 251]
49 nM	155 nM	50.1 nM				N#Cc1cncc(-c2cccc([C@@]3(C4CC4)N=C(N)CO[C@H]3C(F)(F)F)c2)c1 [Compound 253, (5R,6R)-5-{3-[5-amino-3-cyclopropyl-2-(trifluoromethyl)-3,6-dihydro-2H-1,4-oxazin-3-yl]phenyl}pyridine-3-carbonitrile]
28.8 nM	42.7 nM	26.3 nM				NC1=N[C@@](c2cccc(NC(=O)c3ncc(Cl)cc3Cl)c2)(C2CC2)[C@@H](F)OC1 [Compound 256]
1020 nM	891 nM	977 nM				NC1=N[C@@](c2cccc(-c3cncnc3)c2)(C2CC2)[C@@H](F)OC1 [Compound 257]
135 nM	85.1 nM	126 nM				NC1=N[C@@](c2cc(NC(=O)c3ncc(Cl)cc3Cl)ccc2F)(C2CC2)[C@@H](F)OC1 [Compound 259]
6.61 nM	47.9 nM	6.46 nM				C[C@]1(c2cc(NC(=O)c3ncc(Cl)cc3F)ccc2F)N=C(N)CO[C@H]1C(F)(F)F [Compound 260]
69.2 nM	30.2 nM	74.1 nM				N#Cc1ccc(C(=O)Nc2ccc(F)c([C@@]3(C4CC4)N=C(N)CO[C@@]3(F)C(F)(F)F)c2)nc1 [Compound 262]
347 nM	91.2 nM	316 nM				NC1=N[C@@](c2cc(NC(=O)c3cnc(OCC(F)(F)F)cn3)ccc2F)(C2CC2)[C@@H](F)OC1 [Compound 264]
58.9 nM	158 nM	57.5 nM				NC1=N[C@@](c2cccc(-c3cncnc3)c2)(C2CC2)[C@H](C(F)(F)F)OC1 [Compound 269]
46.8 nM	132 nM	47.9 nM				NC1=N[C@@](c2cccc(-c3cncc(F)c3)c2)(C2CC2)[C@H](C(F)(F)F)OC1 [Compound 270]
> 10000 nM	> 30200 nM	> 10000 nM				N#Cc1cncc(-c2ccc(F)c([C@@]3(C4CC4)N=C(N)CO[C@@]3(F)C(F)(F)F)c2)c1 [Compound 271]
36.3 nM	91.2 nM	35.5 nM				Cc1cc(Br)cnc1C(=O)Nc1cccc([C@@]2(C3CC3)N=C(N)CO[C@H]2F)c1 [Compound 272]
120 nM	263 nM	120 nM				NC1=N[C@@](c2cccc(NC(=O)c3cnc(OCC(F)(F)F)cn3)c2)(C2CC2)[C@H](F)OC1 [Compound 274]
58.9 nM	61.7 nM	56.2 nM				NC1=N[C@@](c2cccc(NC(=O)c3cnc(OCC(F)(F)F)cn3)c2)(C2CC2)[C@@H](F)OC1 [Compound 275]
41.7 nM	174 nM	41.7 nM				NC1=N[C@@](c2cccc(NC(=O)c3ncc(Cl)cc3Cl)c2)(C2CC2)[C@H](F)OC1 [Compound 276]
58.9 nM	182 nM	57.5 nM				N#Cc1ccc(C(=O)Nc2cccc([C@@]3(C4CC4)N=C(N)CO[C@H]3F)c2)nc1 [Compound 280]
	74.1 nM		7.3	7.34		CCC1(c2cc(NC(=O)c3cnc(OC)cn3)ccc2F)N=C(N)COC1F (stereo not drawn) [Compound 281]
	891 nM		6.56	6.65		CCC1(c2cc(NC(=O)c3cnc(OC)cn3)ccc2F)N=C(N)COC1F (stereo not drawn) [Compound 282]

IC50 (Abeta 1-42)	IC50 [1]	IC50 (Abeta total)	Cellular αLisa assay in SKNBE2 cells Abeta 42 pIC50 (Abeta 1-42)	Cellular αLisa assay in SKNBE2 cells Abetatotal pIC50 (Abeta total)	Biochemical FRET based assay pIC50 [1]	Structure (SMILES)
30.2 nM	67.6 nM	24.5 nM				CCC1(c2cc(NC(=O)c3ncc(Cl)cc3F)ccc2F)N=C(N)COC1F (stereo not drawn) [Compound 283]
17.8 nM	87.1 nM	17.4 nM				CCC1(c2cc(NC(=O)c3ncc(C#N)cc3Cl)ccc2F)N=C(N)COC1C(F)(F)F (stereo not drawn) [Compound 284]
14.8 nM	100 nM	15.8 nM				CCC1(c2cc(NC(=O)c3cnc(OC)cn3)ccc2F)N=C(N)COC1C(F)(F)F (stereo not drawn) [Compound 285]
158 nM	851 nM	155 nM				NC1=N[C@@](c2cccc(-c3cncnc3)c2)(C2CC2)[C@@H](C(F)(F)F)OC1 [Compound 286]
32.4 nM	138 nM	27.5 nM				NC1=N[C@@](c2cccc(NC(=O)c3ncc(Cl)cc3F)c2)(C2CC2)[C@@H](C(F)(F)F)OC1 [Compound 287]
7.76 nM	33.1 nM	7.41 nM				NC1=N[C@@](c2cccc(NC(=O)c3ncc(Cl)cc3F)c2)(C2CC2)[C@H](C(F)(F)F)OC1 [Compound 288]
10 nM	30.9 nM	10.5 nM				NC1=N[C@@](c2cccc(NC(=O)c3cnc(OCC(F)(F)F)cn3)c2)(C2CC2)[C@H](C(F)(F)F)OC1 [Compound 289]
18.6 nM	97.7 nM	17.8 nM				N#Cc1cnc(C(=O)Nc2cccc([C@@]3(C4CC4)N=C(N)CO[C@@H]3C(F)(F)F)c2)c(Cl)c1 [Compound 290]
5.62 nM	32.4 nM	4.9 nM				N#Cc1cnc(C(=O)Nc2cccc([C@@]3(C4CC4)N=C(N)CO[C@H]3C(F)(F)F)c2)c(Cl)c1 [Compound 291]
			5.98	6.17	6.17	CC#Cc1cncc(-c2ccc(F)c(C3(C4CC4)N=C(N)COC3F)c2)c1 (stereo not drawn) [Compound 292]
1860 nM	1380 nM	1550 nM				CC#Cc1cncc(-c2ccc(F)c([C@@]3(C4CC4)N=C(N)CO[C@H]3F)c2)c1 [Compound 293]
6610 nM	2290 nM	4900 nM				NC1=N[C@@](c2cc(-c3cncc(Cl)c3)ccc2F)(C2CC2)[C@@H](F)OC1 [Compound 294]
			<5	<5	5.42	NC1=NC(c2cc(-c3cncnc3)ccc2F)(C2CC2)C(F)OC1 (stereo not drawn) [Compound 296]
19.1 nM	38.9 nM	17.4 nM				Cc1cc(Cl)cnc1C(=O)Nc1cccc([C@@]2(C3CC3)N=C(N)CO[C@@H]2F)c1 [Compound 297]
61.7 nM	123 nM	58.9 nM				Cc1cc(Cl)cnc1C(=O)Nc1cccc([C@@]2(C3CC3)N=C(N)CO[C@H]2F)c1 [Compound 298]
	1550 nM		5.91	5.93		CCC1(c2cc(NC(=O)c3cnc(OC)cn3)ccc2F)N=C(N)COC1(F)C(F)(F)F (stereo not drawn) [Compound 300]
	> 30200 nM		<5	<5		CCC1(c2cc(-c3cncnc3)ccc2F)N=C(N)COC1(F)C(F)(F)F (stereo not drawn) [Compound 302]
363 nM	589 nM	339 nM				COc1ccc(C(=O)Nc2ccc(F)c([C@@]3(C)N=C(N)CO[C@]3(F)C(F)(F)F)c2)nc1 [Compound 304]
6.92 nM	36.3 nM	7.41 nM				C[C@]1(c2cc(NC(=O)c3ncc(C#N)cc3Cl)ccc2F)N=C(N)CO[C@]1(F)C(F)(F)F [Compound 306]
107 nM	200 nM	93.3 nM				C[C@]1(c2cc(NC(=O)c3ncc(C#N)cc3Cl)ccc2F)N=C(N)CO[C@@]1(F)C(F)(F)F [Compound 307]
6.31 nM	49 nM	6.17 nM				C[C@]1(c2cc(NC(=O)c3ncc(C#N)cc3Cl)ccc2F)N=C(N)CO[C@H]1C(F)(F)F [Compound 308]
74.1 nM	219 nM	72.4 nM				N#Cc1cnc(C(=O)Nc2cccc([C@@]3(C4CC4)N=C(N)CO[C@H]3F)c2)c(Cl)c1 [Compound 309]
